Test results taken from US20250382306A1, “HETEROCYCLIC COMPOUND AS TAAR1 LIGAND AGONIST” (SHANDONG LUYE PHARMACEUTICAL CO., LTD., priority 2022, published 2025).
Like-named read-outs stand apart in the source and are kept apart here.

What was measured:
TAAR1 = biological target: T1, TAAR1 (Homo sapiens, UniProt Q96RJ0); assay: In vitro TAAR1 functional activity (cAMP Hunter CHO-K1 TAAR1 Gs cell line, HitHunter cAMP assay); format: cell-based; settings: chemiluminescence cAMP readout
T1 construct: expressed in transfected cells; host or cells: CHO-K1 (cAMP Hunter TAAR1 Gs cell line)
T1 sequence (Q96RJ0 1-339): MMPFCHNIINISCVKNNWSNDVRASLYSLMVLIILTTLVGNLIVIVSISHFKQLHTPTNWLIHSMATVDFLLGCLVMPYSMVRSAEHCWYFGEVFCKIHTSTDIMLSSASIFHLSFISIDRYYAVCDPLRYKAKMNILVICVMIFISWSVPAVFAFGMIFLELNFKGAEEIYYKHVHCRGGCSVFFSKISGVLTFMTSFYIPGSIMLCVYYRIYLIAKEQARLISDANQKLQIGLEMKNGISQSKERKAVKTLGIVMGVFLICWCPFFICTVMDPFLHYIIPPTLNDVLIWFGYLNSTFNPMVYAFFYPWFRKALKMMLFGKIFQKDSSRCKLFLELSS
Procedure: Test Example 1. In Vitro Evaluation of Intrasynaptic and Extrasynaptic Functional Activities in Cells
Cell: CAMP Hunter™ CHO-K1 TAAR1 Gs Cell Line
Assay Reagent: HitHunter cAMP Assay Detection Kit
Experimental Instrument: PerkinElmer Envision™ Chemiluminescence Signal Detector
Experimental method: cell treatment: The cAMP Hunter cell strain was cultured at 37° C. with 5% CO2 to 70-80% confluence. The cells were harvested, and the cell density was adjusted to 1.5×10^4 cells/mL. The cells were seeded in a white-wall 384-well microwell plate at a volume of 20 μL, and incubated at 37° C. with 5% CO2 overnight. The cell medium was discarded, and 15 μL of 2:1 HBSS/10 mM Hepes:cAMP XS+Ab reagent was added to each well. The mother solution of the sample was diluted with an assay buffer in a concentration gradient to a 4× sample, and 5 μL of the 4× sample was added to each well. The plate was incubated at 37° C. or room temperature for 30 or 60 min. […] 20 μL of cAMP XS+EA reagent was added to each well, and the plate was incubated at room temperature for 3 h. The chemiluminescence signal was read using a PerkinElmer Envision™ detector.
Data analysis: EC50 was calculated using CBIS data analysis software (ChemInnovation, CA). The activity percentage was calculated using the following formula: % activity=100%×(test sample average RLU−solvent control average RLU)/(maximum control average RLU−solvent control average RLU).

[1] = tested on: MK801-induced overactivity; assay: Pharmacodynamic study in mice, MK-801 overactivity model (Test Example 5); format: in vivo, C57 mice; settings: 3 mg/kg intragastric; for total movement distance after modeling: MK-801 0.8 mg/kg i.p., 30-60 min after administration, p<0.05 vs model group 101535.71±26076.11 mm
Procedure: (§1) 4.1. model preparation: MK-801 induces overactivity in mice and is commonly used for preclinical evaluation of antipsychotics. The modeling method in this test was: The mice were injected with MK-801 intraperitoneally in at single dose of 0.8 mg/kg.
(§2) The mice were randomly divided into groups. At the start of the test, the test samples were administered intragastrically at an single dose according to the doses shown in Table 5, and the mice were placed in an activity chamber. After 30 min, each mouse was injected intraperitoneally with 0.8 mg/kg of MK-801 for modeling, and placed in the activity chamber again. The movement distance (mm) of the mice after modeling (i.e., within 30-60 min after administration) was recorded and analyzed using a TopScan monitoring system.
(§3) […] The total movement distance of the mice after modeling (30-60 min after administration) was recorded.
(§4) Data analysis and processing were carried out using Graphpad 5.0 software. ANOVA test was used to compare the total movement distance between each administration group and model group within 30-60 min.
Test Example 5. Pharmacodynamic Study in Mice
5.1. Experimental grouping: The mice were randomly divided into model group, 1-b group, and 2-a group, 5 animals in each group, as shown in Table 6. The model preparation, test method, observation of indexes and statistical method were the same as those in Test Example 4.

[2] = Pharmacokinetic study in dogs; settings: dog, in vivo, po; Beagle dogs, plasma, after intragastric L15 hydrochloride 2 mg/kg (as free base); label = analyte
Procedure: Test Example 3. Pharmacokinetic Study in Dogs
Dog: Beagle dogs weighing 11-13 kg
(§5) Reagent: acetonitrile, MERCK; methanol, MERCK; formic acid, Sigma; tolbutamide, Sigma.
Instrument: water purification equipment, Millipore; electronic balance, METTLER TOLEDO; high-speed benchtop centrifuge, Thermo; water bath thermostatic oscillator, Shanghai Yiheng Technical Co., Ltd.; vortex oscillator, Thermo; liquid chromatography-mass spectrometry, AB SCIEX.
Method: L15 hydrochloride was administered intragastrically at a dose of 2 mg/kg (calculated based on free base), 2 Beagle dogs in each group. The vehicles were DMSO and Tween 80. Whole blood samples were separately collected at 0, 5 min, 15 min, 30 min, 1 h, 2 h, 3 h, 4 h, 6 h, 8 h, 12 h, and 24 h. The whole blood was placed in a heparinized EP tube and centrifuged at 13,500 rpm for 10 min to separate the plasma. After pretreatment, the plasma was analyzed by LC-MS/MS to determine the concentration of the test compound in the plasma.

[3] = tested on: MK801-induced overactivity; assay: Pharmacodynamic study in mice, MK-801 overactivity model (Test Example 4); format: in vivo; settings: C57 mice; for total movement distance after modeling: MK-801 0.8 mg/kg i.p., 30-60 min after administration, p<0.05 vs model group 63052.14±21618.80 mm
Procedure: Test Example 4. Pharmacodynamic Study in Mice
Mouse: C57 mice weighing 20-22 g
Instrument: electronic balance, METTLER TOLEDO; TopScan monitoring system.
as §1
4.2. Experimental grouping: The mice were randomly divided into model group, 1-b group, and L27 group, 10 animals in each group, as shown in Table 5.
as §2, §3, §4

[4] = Pharmacokinetic study in rats; format: in vivo, SD rats; settings: for Cmax: read-out: Cmax or C0
Procedure: Test Example 2. Pharmacokinetic Study in Rats
Rat: SD Rats Weighing 200-250 g
as §5
Instrument: water purification equipment, Millipore; electronic balance, METTLER TOLEDO; high-speed benchtop centrifuge, Thermno; water bath thermostatic oscillator, Shanghai Yiheng Technical Co., Ltd.; vortex oscillator, Thermno; liquid chromatography-mass spectrometry, AB SCIEX.
Method: The SD rats were dosed intravenously (IV) and intragastrically (IG), 3 SD rats in each group. Compounds 1-b, 2-a and L27 were separately administered, and the vehicles were DMSO and Tween 80. […] Whole blood samples were separately collected at 0, 5 m (intravenous), 15 m, 30 mi, 1 h, 2 h, 4 h, 6 h, 8 h, 12 h, and 24 h. The whole blood was placed in a heparinized EP tube and centrifuged at 13,500 rpm for 10 min to separate the plasma. After pretreatment, the plasma was analyzed by LC-MS/MS to determine the concentration of the test compound in the plasma.

[5] = cAMP Hunter CHO-K1 TAAR1 Gs cell line, read-out: EC50
[6] = SD rats, 1-b IV 2 mg/kg, analyte 1-b
[7] = Sprague-Dawley, rat, in vivo, po, SD rats, plasma, 1-b IG 5 mg/kg, analyte 1-b
[8] = Sprague-Dawley, rat, in vivo, SD rats, plasma, 1-b IV 2 mg/kg, analyte 1-b
[9] = EC50, cAMP Hunter CHO-K1 TAAR1 Gs cell line

COc1ccsc1C1CNCCO1 (single isomer, unassigned) [Compound 10-a]
EC50 (TAAR1; [5]): 0.028 µM

COc1ccsc1C1CNCCO1 (single isomer, unassigned) [Compound 10-b]
EC50 (TAAR1; [5]): 0.386 µM

CNCC1OC(C)Cc2ccsc21 (single isomer, unassigned) [Compound 28-a]
EC50 (TAAR1; [5]): > 10 µM

CNCC1OC(C)Cc2ccsc21 (single isomer, unassigned) [Compound 28-b]
EC50 (TAAR1; [5]): 1.84 µM

CNCC1OCC(c2ccccc2)c2ccsc21 (single isomer, unassigned) [Compound 32-a]
EC50 (TAAR1; [5]): > 10 µM

CNCC1OCC(c2ccccc2)c2ccsc21 (single isomer, unassigned) [Compound 32-b]
EC50 (TAAR1; [5]): > 10 µM

CNCC1OCC(c2ccccc2)c2ccsc21 (single isomer, unassigned) [Compound 32-c]
EC50 (TAAR1; [5]): > 10 µM

CNCC1OCC(c2ccccc2)c2ccsc21 (single isomer, unassigned) [Compound 32-d]
EC50 (TAAR1; [5]): > 10 µM

CN1CCc2ccsc2C1CN (single isomer, unassigned) [Compound 42-a]
EC50 (TAAR1; [5]): > 10 µM

CN1CCc2ccsc2C1CN (single isomer, unassigned) [Compound 42-b]
EC50 (TAAR1; [5]): 0.244 µM

NCC1SCCc2ccsc21 (single isomer, unassigned) [Compound 43-a]
EC50 (TAAR1; [5]): > 10 µM

NCC1SCCc2ccsc21 (single isomer, unassigned) [Compound 43-b]
EC50 (TAAR1; [5]): 0.031 µM

c1cc2c(s1)[C@H]1CNCCN1CC2 [Compound 1-a]
EC50 (TAAR1; [5]): 9.12 µM

c1cc2c(s1)[C@@H]1CNCCN1CC2 [Compound 1-b]
effect on MK801-induced overactivity (conclusion) [1]: good inhibition effect
total movement distance after modeling [1]: 13644.54±10814.85 mm
EC50 (TAAR1; [5]): 0.062 µM
AUC(0-t) [2]: 0.0547 µM·h
Cmax [2]: 0.0223 µM
MRT last [2]: 1.68 h
Tmax [2]: 1.5 h
effect on MK801-induced overactivity (conclusion) ([3]; 10 mg/kg intragastric): good inhibition effect
total movement distance after modeling ([3]; 1-b 10 mg/kg intragastric): 6493.12±6228.87 mm
F ([4]; SD rats, 1-b IG 5 mg/kg vs IV 2 mg/kg): 66.6 ± 8.12%
Cl_obs [4, 6]: 28.8 ± 3.25 mL/min/kg
Vss_obs [4, 6]: 2.91 ± 0.68 L/kg
AUC(0-t) [4, 7]: 9.95 ± 1.21 µM·h
MRT last [4, 7]: 2.33 ± 0.465 h
Tmax [4, 7]: 0.417 ± 0.144 h
half-life [4, 7]: 1.85 ± 0.217 h
Cmax [4, 7]: 3.73 ± 0.846 µM
AUC(0-t) [4, 8]: 5.97 ± 0.642 µM·h
MRT last [4, 8]: 1.6 ± 0.203 h
half-life [4, 8]: 1.76 ± 0.344 h
Cmax [4, 8]: 7.54 ± 2.28 µM

CN1CCN2CCc3ccsc3[C@@H]2C1 [Compound 2-a]
effect on MK801-induced overactivity (conclusion) [1]: good inhibition effect
total movement distance after modeling [1]: 9161.61±4711.10 mm
EC50 (TAAR1; [5]): 4.4 µM
Exposure and bioavailability (conclusion) ([4]; rat, in vivo): relatively high exposure and bioavailability

CN1CCN2CCc3ccsc3[C@H]2C1 [Compound 2-b]
EC50 (TAAR1; [5]): > 10 µM

Fc1csc(C2CNCCO2)c1 (centres unmarked) [Compound 8]
EC50 (TAAR1; [9]): 0.295 µM

Fc1ccc(C2CNCCO2)s1 (centres unmarked) [Compound 9]
EC50 (TAAR1; [5]): 0.734 µM

COc1csc([C@@H]2CNCCO2)c1 [Compound 11-a]
EC50 (TAAR1; [9]): > 10 µM

COc1csc([C@H]2CNCCO2)c1 [Compound 11-b]
EC50 (TAAR1; [9]): 2.16 µM

COc1ccc([C@@H]2CNCCO2)s1 [Compound 12-a]
EC50 (TAAR1; [9]): > 10 µM

COc1ccc([C@H]2CNCCO2)s1 [Compound 12-b]
EC50 (TAAR1; [9]): 1.59 µM

CC(C)Oc1ccsc1C1CNCCO1 (centres unmarked) [Compound 15]
EC50 (TAAR1; [9]): > 10 µM

FC(F)COc1ccsc1C1CNCCO1 (centres unmarked) [Compound 19]
EC50 (TAAR1; [9]): > 10 µM

FC(F)(F)COc1ccsc1C1CNCCO1 (centres unmarked) [Compound 20]
EC50 (TAAR1; [5]): 4.72 µM

CNCC1OC(COC)Cc2ccsc21 (centres unmarked) [Compound 30]
EC50 (TAAR1; [5]): > 10 µM

CNCC1OC(C)(C)Cc2ccsc21 (centres unmarked) [Compound 34]
EC50 (TAAR1; [5]): 1.25 µM

CNCC1OCC(C)(C)c2ccsc21 (centres unmarked) [Compound 35]
EC50 (TAAR1; [5]): > 10 µM

CNCC1OCCc2ccoc21 (centres unmarked) [Compound 37]
EC50 (TAAR1; [5]): 1.23 µM

CNC[C@@H]1NCCc2ccsc21 [Compound 38-a]
EC50 (TAAR1; [5]): > 10 µM

CNC[C@H]1NCCc2ccsc21 [Compound 38-b]
EC50 (TAAR1; [5]): 7.96 µM

OC[C@H]1OCCc2ccsc21 [Compound 39-a]
EC50 (TAAR1; [5]): > 10 µM

OC[C@@H]1OCCc2ccsc21 [Compound 39-b]
EC50 (TAAR1; [5]): > 10 µM

CNC[C@@H]1SCCc2ccsc21 [Compound 40-a]
EC50 (TAAR1; [5]): > 10 µM

CNC[C@H]1SCCc2ccsc21 [Compound 40-b]
EC50 (TAAR1; [5]): 0.522 µM

NC[C@@H]1NCCc2ccsc21 [Compound 41-a]
EC50 (TAAR1; [5]): 9.1 µM

NC[C@H]1NCCc2ccsc21 [Compound 41-b]
EC50 (TAAR1; [5]): 0.424 µM

c1cc(C2CC2)c(C2CNCCO2)s1 (centres unmarked) [Compound 59]
EC50 (TAAR1; [5]): 2.91 µM

FCCOc1ccsc1C1CNCCO1 (centres unmarked) [Compound 60]
EC50 (TAAR1; [9]): 9.8 µM

CNCC1c2sccc2CCN1C (centres unmarked) [Compound 61]
EC50 (TAAR1; [5]): > 10 µM

CC(OC(=O)C(C)C)OC(=O)N1CCN2CCc3ccsc3[C@@H]2C1 (some centres unmarked) [Compound L27]
total movement distance after modeling ([3]; L27 hydrochloride 16 mg/kg intragastric): 8100.56±7787.37 mm
Detection of L27 in plasma ([4]; SD rats, after intragastric L27 9 mg/kg): L27 was not detected
